Holding throughout (experiment): DTP human tumour cell line panel, 48 h
Test [1] deals with RXF 393 renal.
In test [2] the test system is NCI-H460 lung.
The test system of test [3] is OVCAR-3 ovarian.
Test [4] deals with SF-295 CNS.
Test [5] relates to NCI-H23 lung.
Test [6] has as its system NCI-H226 lung.
Test [7] has as its system BT-549 breast.
The subject of test [8] is TK-10 renal.
The test system of test [9] is MDA-MB-231 breast.
Test [10] has as its system IGROV1 ovarian.
For test [11], the system named is OVCAR-5 ovarian.
Test [12] relates to ACHN renal.
For test [13], the system named is HT29 colon.

SMILES strings stand for the structures. Several values for one entry are separate records, joined by “and”; a condition that tells them apart may be missing. Equal entries are not always repeated.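 These data come from cells grown in 96-well plates and exposed to compound for 48 hours at five concentrations. Here, GI50 denotes the concentration required for 50% inhibition of growth. TGI: total growth inhibition.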

A word on the TGI: it is the concentration giving total growth inhibition. A low value points to greater sensitivity of the cells. As a reminder, the GI50 is the concentration giving 50% growth inhibition.

Consider `COc1cc2c(cc1OC)C(=O)N(c1ccc(O)cc1)C2=O`, for which the TGI in test [1], in [2], in test [3], in [4], in [5] and in test [6] was more than 100 µM throughout. The TGI in test [7], in [8], in test [9], in test [10], in test [11] and in test [12] was more than 100 µM in each case. The compound further returned a TGI in test [13] of more than 100 µM.

Turning to `CC(NC(=O)NC(C)(C)C)NC(=O)C(N)CC(=O)O` (centres undefined), the TGI in [1], in test [2], in test [3], in [4], in test [5] and in test [6] was more than 100 µM each time. Moreover, the TGI in test [7], in [8], in [9], in [10], in test [11] and in [12] was more than 100 µM in each case. The compound further had a TGI in test [13] of more than 100 µM.

Regarding `O=S(=O)(Nc1nc2ccccc2nc1Nc1ccc2ccccc2c1)c1ccccc1`, the TGI in test [1] was 86.1 µM; in [2], 28.8 µM; in test [3] it was 8.96 µM; in test [4], 47.3 µM; in [5] it was 41.3 µM; in [6], more than 84.2 µM. Besides, the TGI is more than 80.1 µM in [7]; more than 82.7 µM in test [8]; more than 100 µM in test [9]; more than 57.9 µM in test [10]; 81.2 µM in test [11]; more than 100 µM in test [12]. Besides, in test [13], the TGI came to 25.1 µM.

On to `CC(C)(C)OC(=O)NC1CC2(C=C(Br)C(=O)C(Br)=C2)OC1=O` (centres undefined), for which the concentration for total growth inhibition (TGI) worked out at 11.8 µM in [1]; 38.5 µM in test [2]; 32.5 µM in test [3]; 38.9 µM in test [4]; 22 µM in test [5]; 40.6 µM in test [6]. The TGI in test [7] was found to be 30.3 µM; in [8], 12.2 µM; in test [9] it was 32.6 µM; in [10] it was 31.2 µM; in test [11], 35.1 µM; in test [12] it was 10.8 µM. In [13], this compound yielded a TGI of 18.6 µM.

For the compound `CN1C/C(=C\c2cccs2)C(O)/C(=C/c2cccs2)C1` (centres undefined), the concentration for total growth inhibition (TGI) in test [1], in test [2], in test [3], in [4], in [5] and in test [6] was more than 100 µM throughout. The TGI in [7], in test [8], in test [9], in test [10], in test [11] and in test [12] was more than 100 µM throughout. Further, the TGI in [13] is more than 100 µM.

For `CCOC(=O)C1=C(O)C2C3CC4C2C(O)=C(C(=O)OCC)C2C1C3C42` (centres undefined), the TGI in test [1], in [2], in [3], in test [4], in test [5] and in test [6] was more than 100 µM throughout. Also, the TGI in test [7], in [8], in test [9], in [10], in [11] and in test [12] was more than 100 µM throughout. Moreover, in test [13], the TGI is more than 100 µM.

For `CC1(C)OC2[C@@H](CO[C@@]3([C@@H](O)CCO)OC(C)(C)O[C@@H]23)O1` (some centres undefined), the TGI in test [1], in [2], in [3], in test [4], in test [5] and in [6] was more than 100 µM each time. In addition, the TGI in test [7], in [8], in test [9], in [10], in test [11] and in test [12] was more than 100 µM each time. The same compound displayed a TGI in test [13] of more than 100 µM.

As for `O=C(O)CCS/C(=C\C(SCCC(=O)O)c1ccc(Cl)cc1)c1ccc(Cl)cc1` (centres undefined), the concentration for total growth inhibition (TGI) is more than 100 µM in test [1]; more than 100 µM in [2]; 49 µM in [3]; more than 100 µM in test [4]; more than 100 µM in [5]; more than 100 µM in [6]. The total growth inhibition concentration (TGI) was 87.5 µM in test [7]; more than 100 µM in test [8]; more than 100 µM in [9]; more than 100 µM in test [10]; more than 100 µM in test [11]; more than 100 µM in [12]. Also, the TGI in test [13] is more than 100 µM.

Regarding `C=C1C(=O)O[C@H]2C[C@@]3(COC(C)=O)C=COC=C(COC(=O)C(C)C)C3CC12` (some centres undefined), the TGI in [1], in [2], in [3], in test [4], in test [5] and in [6] was more than 100 µM throughout. The TGI in [7], in test [8], in [9], in test [10], in [11] and in [12] was more than 100 µM in each case. In test [13], this compound displayed a TGI of more than 100 µM.

In the case of `Clc1ccc(C(c2ccccc2Cl)C(Cl)Cl)cc1` (centres undefined), the TGI in test [1] was 30.9 µM; in test [2] it was 39.3 µM; in test [3], 34.3 µM; in test [4] it was 35.6 µM; in test [5], 37.7 µM; in test [6] it was 39.1 µM. The TGI is 30.2 µM in [7]; 37.5 µM in test [8]; 35.2 µM in test [9]; 30.7 µM in test [10]; 33.9 µM in test [11]; 38.8 µM in test [12]. The compound also had a total growth inhibition concentration (TGI) in test [13] of 33.7 µM.

For `CC1=NC2=Nc3nc(C)cc[n+]3CN2C=C1`, the TGI in [1], in [2], in test [3], in test [4], in test [5] and in test [6] was more than 100 µM throughout. The TGI in test [7], in test [8], in [9], in [10], in test [11] and in test [12] was more than 100 µM each time. Besides, the TGI in test [13] was more than 100 µM.

In the case of `Cc1cc2/c(=C\c3ccc(N(C)C)cc3)c3ccccc3n2[n+]1C`, the TGI in test [1] came to 10.4 µM; in test [2], 2.02 µM; in [3] it was 2.63 µM; in [4] it was 12.8 µM; in test [5], 3.23 µM; in test [6], 5.87 µM. For the same compound, the TGI in test [7] was 5.99 µM; in [8], 6.04 µM; in [9], 3.66 µM; in [10], 6.76 µM; in test [11] it was 21.3 µM; in test [12], 10 µM. The compound also returned a TGI in test [13] of 9.03 µM.

Turning to `CS(=O)(=O)OCCN(CCOS(C)(=O)=O)c1ccc(C=Nc2cccc(Cl)c2)cc1`, the TGI in [1] was more than 100 µM; in test [2] it was more than 33.4 µM; in [3] it was 51.8 µM; in [4], 28.9 µM; in test [5] it was 10.6 µM; in test [6], 11 µM. Further, the total growth inhibition concentration (TGI) in [7] was 53.3 µM; in test [8], 6.79 µM; in test [9], 48.6 µM; in test [10], more than 87.8 µM; in test [11], 17.7 µM; in [12], 0.651 µM. The same compound registered a TGI in [13] of 33.6 µM.

For the compound `C=CCC1CC(n2cc(C)c(=O)[nH]c2=O)OC1CO[Si](C)(C)C(C)(C)C` (centres undefined), the TGI in [1] was found to be 15.9 µM; in [2], 38.9 µM; in [3] it was 31 µM; in test [4], 40 µM; in [5], 27.1 µM; in test [6], 28.4 µM. For the same compound, the total growth inhibition concentration (TGI) turned out to be 29.6 µM in test [7]; 30.1 µM in test [8]; 28.9 µM in test [9]; 23.4 µM in [10]; 31.7 µM in test [11]; 29.8 µM in test [12]. In [13], this compound gave a TGI of 30.9 µM.

As to `O=C(NCCN1CCOCC1)c1cn2c(ccc3sc4ccccc4c(=O)c32)n1`, the total growth inhibition concentration (TGI) in test [1] is more than 100 µM; in test [2], 18.3 µM; in test [3], more than 100 µM; in [4], 44.9 µM; in test [5] it was more than 100 µM; in [6] it was more than 100 µM. Besides, the total growth inhibition concentration (TGI) in test [7], in test [8], in [9], in test [10], in test [11] and in test [12] was more than 100 µM each time. Further, the TGI in [13] was 25.6 µM.

`C=C(C(=O)O)[C@@H]1C[C@@H]2O[C@H]1[C@@H](O)[C@@H](C)CCCC(C)=CCC[C@@]2(C)O`: the TGI in [1], in [2], in [3], in test [4], in test [5] and in test [6] was more than 100 µM each time. For the same compound, the total growth inhibition concentration (TGI) in test [7], in test [8], in [9], in test [10], in [11] and in test [12] was more than 100 µM throughout. The compound further gave a TGI in test [13] of more than 100 µM. Moreover, the GI50 is 33.5 µM and > 100 µM in test [7]; 32.4 µM and > 100 µM in test [13].

In the case of `CC(=N\N)/C(C)=N/N=C(C)/C(C)=N/N`, the concentration for total growth inhibition (TGI) in test [1], in test [2], in test [3], in test [4], in test [5] and in test [6] was more than 100 µM each time. In addition, the TGI in [7], in test [8], in [9], in test [10], in test [11] and in test [12] was more than 100 µM throughout. Further, the concentration for total growth inhibition (TGI) in test [13] was more than 100 µM.

Consider `O=C1C(Br)=C(c2ccccc2)O/C1=C/C(=O)c1ccc(Br)cc1`, for which the total growth inhibition concentration (TGI) was 46.9 µM in [1]; more than 100 µM in test [2]; more than 100 µM in [3]; more than 100 µM in [5]; more than 100 µM in test [6]; 25.5 µM in test [7]. For the same compound, the TGI in test [8], in test [9], in test [10], in [11], in [12] and in [13] was more than 100 µM throughout.

For the compound `CN(C)CCNC(=O)c1ccc(NCCCN(C)CCCNc2ccc(C(=O)NCCN(C)C)c3[nH]c4ccccc4c(=O)c23)c2c(=O)c3ccccc3[nH]c12`, the TGI in test [1] came out at 1.15 µM; in [2] it was 0.12 µM; in test [3] it was 0.694 µM; in test [4] it was 1.31 µM; in test [5], 0.315 µM; in test [6] it was 0.609 µM. Further, the TGI in [7] turned out to be 1.63 µM; in test [8], 1.98 µM; in [9] it was 0.309 µM; in test [10], 2.07 µM; in test [11], 0.647 µM; in test [12], 1.71 µM. The TGI in [13] was 0.236 µM.

For the compound `NC(N)=NC(N)=Nc1ccc(S(=O)(=O)O)cc1`, the TGI in [1], in test [2], in test [3], in test [4], in test [5] and in test [6] was more than 100 µM each time. Also, the TGI in test [7], in [8], in test [9], in [10], in test [11] and in test [12] was more than 100 µM throughout. In test [13], this compound returned a TGI of more than 100 µM.

With `Cc1ccc(SC2C(=O)C3CC(OCc4ccccc4)C2(C)C3(C)C)cc1` (centres undefined), the TGI in test [1], in test [2], in [3], in test [4], in test [5] and in [6] was more than 100 µM each time. The TGI in test [7], in test [8], in test [9], in test [10], in [11] and in test [12] was more than 100 µM in each case. In [13], this compound registered a TGI of more than 100 µM.

(Values after PubChem BioAssay (NCI).)
